Source: paper PMC4885601 (Journal of Medicinal Chemistry, 2016)
Like-named read-outs stand apart in the source and are kept apart here.

Assays:
κ-opioid receptor (KOR) = κ-opioid receptor (KOR) (Homo sapiens, UniProt P41145); assay: Stimulation of [35S]GTPγS binding at KOR; format: biochemical; conditions: percent maximal stimulation relative to U69,593 at 10 μM
δ-opioid receptor (DOR) [1] = target: T1, δ-opioid receptor (DOR) (Rattus norvegicus, UniProt P33533); conditions: cited from earlier work
mouse [2] = assay: In vivo warm water tail withdrawal; conditions: ip, up to 10 mg/kg
δ-opioid receptor (DOR) [3] = target: T1, δ-opioid receptor (DOR); assay: Stimulation of [35S]GTPγS binding at DOR; format: biochemical; conditions: percent maximal stimulation relative to DPDPE at 10 μM
mouse [4] = conditions: WWTW assay; cited from earlier work

T1 sequence (P33533 whole entry): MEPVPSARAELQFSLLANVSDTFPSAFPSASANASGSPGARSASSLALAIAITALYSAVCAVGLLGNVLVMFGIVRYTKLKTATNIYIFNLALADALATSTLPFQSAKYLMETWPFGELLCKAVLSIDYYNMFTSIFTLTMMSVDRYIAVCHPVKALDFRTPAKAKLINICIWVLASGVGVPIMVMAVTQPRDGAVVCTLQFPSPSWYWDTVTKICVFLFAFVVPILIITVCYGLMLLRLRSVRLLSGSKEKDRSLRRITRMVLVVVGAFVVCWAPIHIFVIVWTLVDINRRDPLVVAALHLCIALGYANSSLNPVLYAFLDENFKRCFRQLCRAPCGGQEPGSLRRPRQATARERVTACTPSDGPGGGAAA
Chain of κ-opioid receptor (KOR) (P41145 whole entry): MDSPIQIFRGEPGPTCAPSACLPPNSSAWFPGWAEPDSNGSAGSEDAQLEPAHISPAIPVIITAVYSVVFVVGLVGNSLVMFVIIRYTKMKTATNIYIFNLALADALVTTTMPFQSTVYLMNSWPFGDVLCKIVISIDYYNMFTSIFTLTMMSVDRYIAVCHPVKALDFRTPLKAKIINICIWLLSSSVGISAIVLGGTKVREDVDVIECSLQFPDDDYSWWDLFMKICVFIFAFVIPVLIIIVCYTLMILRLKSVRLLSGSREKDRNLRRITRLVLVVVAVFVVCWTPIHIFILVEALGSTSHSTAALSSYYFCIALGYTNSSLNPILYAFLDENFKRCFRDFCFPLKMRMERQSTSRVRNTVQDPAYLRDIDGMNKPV

Cc1cc(O)cc(C)c1C[C@H](N)C(=O)N[C@@H]1CCN(C(=O)C2CCC2)c2ccc(Cc3ccccc3)cc21 [4g, (S)-2-Amino-N-((R)-6-benzyl-1-(cyclobutanecarbonyl)-1,2,3,4-tetrahydroquinolin-4-yl)-3-(4-hydroxy-2,6-dimethylphenyl)propanamide]
% stimulation KOR (κ-opioid receptor (KOR)): no efficacy

CC(=O)N1CC[C@@H](NC(=O)[C@@H](N)Cc2c(C)cc(O)cc2C)c2cc(Cc3ccccc3)ccc21 [4b, (S)-N-((R)-1-Acetyl-6-benzyl-1,2,3,4-tetrahydroquinolin-4-yl)-2-amino-3-(4-hydroxy-2,6-dimethylphenyl)propanamide]
% stimulation DOR (δ-opioid receptor (DOR) [1]): 26%

COC(=O)N1CC[C@@H](NC(=O)[C@@H](N)Cc2c(C)cc(O)cc2C)c2cc(Cc3ccccc3)ccc21 [4h, Methyl (R)-4-((S)-2-Amino-3-(4-hydroxy-2,6-dimethylphenyl)propanamido)-6-benzyl-3,4-dihydroquinoline-1(2H)-carboxylate]
antinociception in the WWTW assay (mouse [2]): full in vivo antinociception

Cc1cc(O)cc(C)c1C[C@H](N)C(=O)N[C@@H]1CCN(C(=O)c2ccccc2)c2ccc(Cc3ccccc3)cc21 [4j, (S)-2-Amino-N-((R)-1-benzoyl-6-benzyl-1,2,3,4-tetrahydroquinolin-4-yl)-3-(4-hydroxy-2,6-dimethylphenyl)propanamide]
% stimulation DOR (δ-opioid receptor (DOR) [3]): no stimulation

Cc1cc(O)cc(C)c1C[C@H](N)C(=O)N[C@@H]1CCN(C(=O)C2CC2)c2ccc(Cc3ccccc3)cc21 [4f, (S)-2-Amino-N-((R)-6-benzyl-1-(cyclopropanecarbonyl)-1,2,3,4-tetrahydroquinolin-4-yl)-3-(4-hydroxy-2,6-dimethylphenyl)propanamide]
antinociception in the WWTW assay (mouse [2]): partial antinociception

CC(=O)N1CC[C@@H](NC(=O)[C@@H](N)Cc2c(C)cc(O)cc2C)c2cc(Cc3ccc4ccccc4c3)ccc21 [15b, (S)-N-((R)-1-Acetyl-6-(naphthalen-2-ylmethyl)-1,2,3,4-tetrahydroquinolin-4-yl)-2-amino-3-(4-hydroxy-2,6-dimethylphenyl)propanamide]
duration of in vivo antinociception (mouse [4]): greater than 3 h
